What was measured:
[1] = Hydrolytic stability assessed as compound degradation per ug of protein at 10 uM after 90 mins by scintillation counting in presence of human recombinant cathepsin A; settings: 1.5 h
[2] = Cytotoxicity against human MT2 cells after 5 days by XTT assay
PBMC = assay: Metabolic stability in cathepsin A-overexpressing human PBMC assessed as compound degradation per ug of protein at 10 uM after 120 mins by scintillation counting; settings: 2 h, 30 µM
[3] = system: Human immunodeficiency virus 1; assay: Antiviral activity against HIV1 3B infected in human MT2 cells assessed as inhibition of virus-induced cytopathic effect after 5 days by XTT assay; assay type: functional, organism-based
[4] = Half life in dog hepatocytes at 2 uM by LC/MS/MS analysis
[5] = Half life in dog intestine S9 fraction at 2 uM by LC/MS/MS analysis; settings: intestine S9 fraction, t1/2
[6] = Half life in human hepatocytes at 2 uM by LC/MS/MS analysis
Homo sapiens = species: Homo sapiens; assay: in vitro; settings: plasma
[7] = Metabolic stability in dog plasma assessed as compound remaining after 60 mins
[8] = Human immunodeficiency virus 1, 3B, MT2, 120 h

SMILES | Activity [1] | CC50 at 120 h [2] | Activity (PBMC) | EC50 [3, 8] | further results
CCC(CC)OC(=O)[C@H](C)NP(=O)(CO[C@@H]1C=C(F)[C@H](n2cnc3c(N)ncnc32)O1)Oc1ccccc1 (stereo partly drawn) | 0 pmol/min | 8350 nM | 0 pmol/min | 662 nM | –
CC(C)OC(=O)[C@H](C)NP(=O)(CO[C@@H]1C=C(F)[C@H](n2cnc3c(N)ncnc32)O1)Oc1ccccc1 (stereo in doubt; 18s) [(2S)-ISOPROPYL 2-(((2R,5R)-5-(6-AMINO-9H-PURIN-9-YL)-4-FLUORO-2,5-DIHYDROFURAN-2-YLOXY)(PHENOXY)PHOSPHORYLAMINO)PROPANOATE (ENANTIOMERIC MIX)] | 216 pmol/min | – | 0.3 pmol/min | – | EC50 ([3]; mt2): 728 nM; half-life at 2 µM ([4]; t1/2): 1.47 h
CCOC(=O)[C@H](C)NP(=O)(CO[C@@H]1C=C(F)[C@H](n2cnc3c(N)ncnc32)O1)N[C@@H](C)C(=O)OCC | – | – | – | 723 nM | –
CC(C)OC(=O)CNP(=O)(CO[C@@H]1C=C(F)[C@H](n2cnc3c(N)ncnc32)O1)NCC(=O)OC(C)C | – | – | – | > 2000 nM | –
CCCCCOC(=O)[C@H](C)NP(=O)(CO[C@@H]1C=C(F)[C@H](n2cnc3c(N)ncnc32)O1)Oc1ccccc1 (stereo partly drawn) | 5088 pmol/min | 27000 nM | 6.7 pmol/min | 33 nM | half-life at 2 µM ([4]; t1/2): 0.95 h
CCCCOC(=O)[C@H](Cc1ccccc1)NP(=O)(CO[C@@H]1C=C(F)[C@H](n2cnc3c(N)ncnc32)O1)N[C@@H](Cc1ccccc1)C(=O)OCCCC | 66680 pmol/min | 4800 nM | 50 pmol/min | 8.4 nM | half-life at 2 µM [4]: 0.167 h
CCOC(=O)[C@H](C)NP(=O)(CO[C@@H]1C=C(F)[C@H](n2cnc3c(N)ncnc32)O1)Oc1ccccc1 (stereo partly drawn) [listing 1 of 2 here] | – | – | – | – | EC50 ([3]; mt2): 262 nM
CC(C)COC(=O)[C@H](C)NP(=O)(CO[C@@H]1C=C(F)[C@H](n2cnc3c(N)ncnc32)O1)N[C@@H](C)C(=O)OCC(C)C | 1770 pmol/min | > 100000 nM | 2.1 pmol/min | 119 nM | half-life at 2 µM [4]: 3.22 h
C[C@H](NP(=O)(CO[C@@H]1C=C(F)[C@H](n2cnc3c(N)ncnc32)O1)Oc1ccccc1)C(=O)OCC1CCC1 (stereo partly drawn) | – | – | – | 25 nM | –
CC[C@H](NP(=O)(CO[C@@H]1C=C(F)[C@H](n2cnc3c(N)ncnc32)O1)Oc1ccccc1)C(=O)OCC(C)C (stereo partly drawn) | 728 pmol/min | > 100000 nM | 1.9 pmol/min | 103 nM | half-life at 2 µM ([4]; t1/2): 2.12 h
CCCOC(=O)[C@H](Cc1ccccc1)NP(=O)(CO[C@@H]1C=C(F)[C@H](n2cnc3c(N)ncnc32)O1)Oc1ccccc1 (stereo partly drawn) | – | – | – | 4.9 nM | –
CC[C@H](NP(=O)(CO[C@@H]1C=C(F)[C@H](n2cnc3c(N)ncnc32)O1)N[C@@H](CC)C(=O)OCC(C)C)C(=O)OCC(C)C | 867 pmol/min | – | 1.3 pmol/min | 128 nM | half-life at 2 µM [4]: 1.18 h
Nc1ncnc2c1ncn2[C@@H]1O[C@H](OCP(=O)(N[C@@H](Cc2ccccc2)C(=O)OCC2CCC2)Oc2ccccc2)C=C1F (stereo partly drawn) | 37017 pmol/min | 46500 nM | 24 pmol/min | 3.8 nM | half-life at 2 µM [5]: 3.4 min; half-life at 2 µM ([6]; t1/2): 1.03 h; half-life at 2 µM ([4]; t1/2): 0.383 h
CC(C)COC(=O)CNP(=O)(CO[C@@H]1C=C(F)[C@H](n2cnc3c(N)ncnc32)O1)Oc1ccccc1 (stereo partly drawn) | 226 pmol/min | 22000 nM | 0.72 pmol/min | 1120 nM | –
CCCCSC(=O)[C@@H](Cc1ccccc1)NP(=O)(CO[C@@H]1C=C(F)[C@H](n2cnc3c(N)ncnc32)O1)Oc1ccccc1 (stereo partly drawn) | 1510 pmol/min | > 100000 nM | 2.1 pmol/min | 141 nM | half-life at 2 µM ([4]; t1/2): 0.933 h
CCCCOC(=O)[C@H](CC)NP(=O)(CO[C@@H]1C=C(F)[C@H](n2cnc3c(N)ncnc32)O1)Oc1ccccc1 (stereo partly drawn) | 1377 pmol/min | 70000 nM | 1.4 pmol/min | 88 nM | half-life at 2 µM ([4]; t1/2): 1.52 h
CC(C)COC(=O)[C@H](Cc1ccccc1)NP(=O)(CO[C@@H]1C=C(F)[C@H](n2cnc3c(N)ncnc32)O1)OCC(F)(F)F (stereo partly drawn) | 30107 pmol/min | > 100000 nM | 22 pmol/min | 119 nM | half-life at 2 µM [4]: 0.45 h

SMILES | Activity [1] | CC50 at 120 h [2] | Activity (PBMC) | EC50 [3, 8] | further results
Nc1ncnc2c1ncn2[C@@H]1O[C@H](OCP(=O)(N[C@@H](Cc2ccccc2)C(=O)OC2CCC2)Oc2ccccc2)C=C1F (stereo partly drawn) | – | – | – | 20 nM | –
C[C@H](NP(=O)(CO[C@@H]1C=C(F)[C@H](n2cnc3c(N)ncnc32)O1)Oc1ccccc1)C(=O)OCC1CC1 (stereo partly drawn) | – | – | – | 59 nM | –
CCOC(=O)[C@H](Cc1ccccc1)NP(=O)(CO[C@@H]1C=C(F)[C@H](n2cnc3c(N)ncnc32)O1)N[C@@H](Cc1ccccc1)C(=O)OCC | 41020 pmol/min | – | 40 pmol/min | 8.9 nM | –
CC(C)OC(=O)[C@H](Cc1ccccc1)NP(=O)(CO[C@@H]1C=C(F)[C@H](n2cnc3c(N)ncnc32)O1)Oc1ccccc1 (stereo partly drawn) | – | – | – | 63 nM | –
CCOC(=O)[C@H](C)OP(=O)(CO[C@@H]1C=C(F)[C@H](n2cnc3c(N)ncnc32)O1)Oc1ccccc1 (stereo partly drawn) | – | – | – | 2000 nM | –
CCOC(=O)[C@H](C)NP(=O)(CO[C@@H]1C=C(F)[C@H](n2cnc3c(N)ncnc32)O1)Oc1ccccc1 (stereo partly drawn) [listing 2 of 2 here] | – | – | – | – | EC50 ([3]; mt2): 157 nM
C[C@H](NP(=O)(CO[C@@H]1C=C(F)[C@H](n2cnc3c(N)ncnc32)O1)Oc1ccccc1)C(=O)OC1CCCC1 (stereo partly drawn) | 5688 pmol/min | > 100000 nM | 3 pmol/min | 63 nM | –
CCCOC(=O)[C@H](Cc1ccccc1)NP(=O)(CO[C@@H]1C=C(F)[C@H](n2cnc3c(N)ncnc32)O1)N[C@@H](Cc1ccccc1)C(=O)OCCC | 27642 pmol/min | – | 20 pmol/min | 5.2 nM | –
CCCOC(=O)[C@H](C)NP(=O)(CO[C@@H]1C=C(F)[C@H](n2cnc3c(N)ncnc32)O1)Oc1ccccc1 (stereo partly drawn) | 19103 pmol/min | 31000 nM | 26 pmol/min | 52 nM | half-life at 2 µM ([4]; t1/2): 1.47 h
CC(C)COC(=O)[C@H](C)NP(=O)(CO[C@@H]1C=C(F)[C@H](n2cnc3c(N)ncnc32)O1)Oc1ccccc1 (stereo partly drawn) | – | – | – | 58 nM | –
CCOC(=O)[C@H](C)NP(=O)(CO[C@@H]1C=C(F)[C@H](n2cnc3c(N)ncnc32)O1)OCC(F)(F)F (stereo partly drawn) | 1132 pmol/min | > 100000 nM | 0.69 pmol/min | 1050 nM | half-life at 2 µM [6]: 3.08 h; half-life at 2 µM [4]: 1.43 h
CCCOC(=O)[C@H](C)NP(=O)(CO[C@@H]1C=C(F)[C@H](n2cnc3c(N)ncnc32)O1)N[C@@H](C)C(=O)OCCC | – | – | – | 1060 nM | –
CC(C)COC(=O)CNP(=O)(CO[C@@H]1C=C(F)[C@H](n2cnc3c(N)ncnc32)O1)NCC(=O)OCC(C)C | 0 pmol/min | > 100000 nM | 0 pmol/min | 1610 nM | –
CC[C@H](NP(=O)(CO[C@@H]1C=C(F)[C@H](n2cnc3c(N)ncnc32)O1)N[C@@H](CC)C(=O)OC(C)C)C(=O)OC(C)C | 0 pmol/min | – | 0.05 pmol/min | > 2000 nM | remaining at 1 h (Homo sapiens): 100%; remaining at 1 h [7]: 100%; half-life at 2 µM [4]: 11.5 h
Nc1ncnc2c1ncn2[C@@H]1O[C@H](OCP(=O)(N[C@@H](Cc2ccccc2)C(=O)OCC2CC2)Oc2ccccc2)C=C1F (stereo partly drawn) | 39270 pmol/min | > 100000 nM | 41 pmol/min | 7.5 nM | half-life at 2 µM ([6]; t1/2): 0.667 h; half-life at 2 µM ([4]; t1/2): 0.283 h
CCOC(=O)[C@H](C)NP(=O)(CO[C@@H]1C=C(F)[C@H](n2cnc3c(N)ncnc32)O1)Oc1ccccc1 (stereo partly drawn) [(2S)-ETHYL 2-((((2R,5R)-5-(6-AMINO-9H-PURIN-9-YL)-4-FLUORO-2,5-DIHYDROFURAN-2-YLOXY)METHYL)(PHENOXY)PHOSPHORYLAMINO)PROPANOATE (ENANTIOMERIC MIX)] | – | – | – | – | EC50 ([3]; mt2): 96 nM
CCCCOC(=O)[C@H](C)NP(=O)(CO[C@@H]1C=C(F)[C@H](n2cnc3c(N)ncnc32)O1)Oc1ccccc1 (stereo partly drawn) | 6183 pmol/min | 91000 nM | 7.3 pmol/min | 92 nM | half-life at 2 µM ([4]; t1/2): 1.05 h

— ChEMBL document CHEMBL1157759, “Discovery of GS-9131: Design, synthesis and optimization of amidate prodrugs of the novel nucleoside phosphonate HIV reverse transcriptase (RT) inhibitor GS-9148” (Bioorg Med Chem, 2010)
